# Data: PubChem BioAssay (NCI)
# Several values for one entry are separate records, joined by “and”; a condition that tells them apart may be missing. Equal entries are not always repeated.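 Each compound was tested at five concentrations against cells in 96-well plates for 48 hours. GI50 is the concentration that inhibits growth by half. TGI denotes the concentration required for complete inhibition of growth.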
# Tests used:
# Assay in all cases: growth of human tumour cells (NCI), 48 h
# MDA-MB-231 breast = system: MDA-MB-231 breast
# SK-MEL-5 melanoma = system: SK-MEL-5 melanoma
# UACC-62 melanoma = system: UACC-62 melanoma
# SK-MEL-2 melanoma = system: SK-MEL-2 melanoma
# IGROV1 ovarian = system: IGROV1 ovarian
# HT29 colon = system: HT29 colon
# NCI-H522 lung = system: NCI-H522 lung
# OVCAR-4 ovarian = system: OVCAR-4 ovarian
# NCI-H460 lung = system: NCI-H460 lung
# MOLT-4 leukemia = system: MOLT-4 leukemia
Compound,TGI (MDA-MB-231 breast),TGI (SK-MEL-5 melanoma),TGI (UACC-62 melanoma),TGI (SK-MEL-2 melanoma),TGI (IGROV1 ovarian),TGI (HT29 colon),TGI (NCI-H522 lung),TGI (OVCAR-4 ovarian),TGI (NCI-H460 lung),TGI (MOLT-4 leukemia),GI50 (MDA-MB-231 breast),GI50 (SK-MEL-5 melanoma),GI50 (UACC-62 melanoma),GI50 (SK-MEL-2 melanoma),GI50 (IGROV1 ovarian),GI50 (HT29 colon),GI50 (NCI-H522 lung),GI50 (OVCAR-4 ovarian),GI50 (NCI-H460 lung),GI50 (MOLT-4 leukemia)
C[C@H]1/C(=C/C(=O)OCCN(C)C)CC[C@H]2[C@H]1C(=O)C[C@H]1C(C)(C)[C@@H](O)CC[C@]21C,> 100 µM,> 100 µM,> 100 µM,> 100 µM,> 100 µM,> 100 µM,> 100 µM,> 100 µM,> 100 µM,> 100 µM,,,,,,,,,,
C=C1CC2(CC(c3ccccc3Cl)OC(c3ccccc3Cl)C2)OC1=O (stereo not drawn),3.45 µM,10.4 µM,4.68 µM,6.78 µM,4.62 µM,6.68 µM,3.3 µM,8.56 µM,12.6 µM,6.19 µM,,,,,,,,,,
O=C1/C=C/[C@@H](O)[C@@H]2C[C@@H](O)C[C@H]2/C=C/CCC[C@H](CCc2cccc3ccccc23)O1,0.119 µM,0.0326 µM,12.9 µM,0.521 µM,12.1 µM,0.373 µM,0.581 µM,3.82 µM,12.2 µM,2.61 µM,0.0464 µM,0.0171 µM,0.038 µM,0.175 µM,0.267 µM,0.0347 µM,0.234 µM,0.0525 µM,0.274 µM,0.105 µM
CO[C@H]1C=CO[C@@]2(C)Oc3c(C)c(O)c4c(O)c(c(CN5CCN(C)CC5)c(O)c4c3C2=O)NC(=O)/C(C)=C\C=C[C@H](C)[C@H](O)C(C)[C@@H](O)C(C)[C@H](OC(C)=O)[C@@H]1C (stereo partly drawn),> 100 µM,56.4 µM,> 100 µM,> 100 µM,> 100 µM,> 100 µM,46.5 µM,> 100 µM,> 100 µM,49.1 µM,,,,,,,,,,
Cn1c(=O)c(Oc2ccc(F)cc2F)cc2cnc(NC(C)(C)CO)nc21,> 25 µM,> 25 µM,> 25 µM,> 25 µM,> 25 µM,> 25 µM,> 25 µM,> 25 µM,> 25 µM,> 25 µM,> 25 µM,> 25 µM,> 25 µM,> 25 µM,> 25 µM,> 25 µM,> 25 µM,> 25 µM,> 25 µM,> 25 µM
CCN(CC)CCCC(C)Nc1ccnc2cc(Cl)ccc12 (stereo not drawn),> 100 µM and 73.4 µM,48.2 µM and 63.3 µM,> 100 µM,> 100 µM and 14.9 µM,> 100 µM,> 100 µM,> 100 µM,> 100 µM,> 100 µM,> 100 µM and 50 µM,> 100 µM,21.9 µM,37.6 µM,> 100 µM,> 100 µM,45.7 µM,> 100 µM,> 100 µM,66.6 µM,62.9 µM
CCCCOC(=O)c1ccc(N)cc1,> 100 µM,> 100 µM,> 100 µM,> 100 µM,> 100 µM,> 100 µM,> 100 µM,> 100 µM,> 100 µM,> 100 µM,> 100 µM,27.8 µM,17.9 µM,> 100 µM,> 100 µM,> 100 µM,54.1 µM,> 100 µM,34.3 µM,> 100 µM
O=C(Nc1ccc(Cc2ccccc2)cc1)Nc1nn(C(=O)Nc2ccc(Cc3ccccc3)cc2)c2ccccc12,> 100 µM,> 100 µM,> 100 µM,> 100 µM,> 100 µM,> 100 µM,> 100 µM,> 100 µM,> 100 µM,> 100 µM,47.1 µM,> 100 µM,41.6 µM,> 100 µM,> 100 µM,> 100 µM,> 100 µM,> 100 µM,> 100 µM,63.2 µM
CN(C)CCCN(CCC1CCCCC1)CCC1CCCCC1,3.97 µM,2.14 µM,3.35 µM,3.73 µM,4.65 µM,6.81 µM,8.3 µM,27.7 µM,3.45 µM,7.93 µM,1.62 µM,0.545 µM,1.79 µM,1.93 µM,1.91 µM,0.73 µM,3.1 µM,7.41 µM,1.79 µM,1.85 µM
CSc1c(C2=C(c3cn(C)c4ccccc34)C(=O)NC2=O)c2ccccc2n1C,> 25 µM,6.88 µM,> 25 µM,5.37 µM,> 25 µM,> 25 µM,1.59 µM,> 22.5 µM,> 25 µM,8.78 µM,2.57 µM,0.758 µM,0.896 µM,0.689 µM,1.39 µM,0.814 µM,0.367 µM,1.2 µM,0.832 µM,1.43 µM
O=C(O)[C@H](Cc1c[nH]c2ccccc12)N1C(=O)c2ccccc2C1=O,> 100 µM,> 100 µM,> 100 µM,> 100 µM,> 100 µM,> 100 µM,> 100 µM,> 100 µM,> 100 µM,> 100 µM,,,,,> 100 µM,,,,,> 100 µM
O=C(/C=C/c1ccc(Cl)cc1)c1ccccc(=O)c1O,23.6 µM,4.93 µM,6 µM,11.8 µM,15.8 µM,10.8 µM,50.9 µM,17.9 µM,3.04 µM,16.2 µM,,,,,,,,,,
C=C(CN1CCN(c2ccc(C(F)(F)F)cc2)CC1)c1ccc(C(=O)Nc2ccccc2N)cc1,> 71.3 µM,> 100 µM,> 100 µM,> 100 µM,> 100 µM,> 100 µM,> 100 µM,> 100 µM,> 100 µM,1.06 µM,3.6 µM,4.43 µM,23 µM,> 100 µM,18.2 µM,> 75.7 µM,1.85 µM,5.68 µM,3.44 µM,0.153 µM
Cc1ccc(Nc2nccc(N(C)c3ccc4c(C)n(C)nc4c3)n2)cc1S(N)(=O)=O,> 100 µM,10.8 µM,,,> 100 µM,> 100 µM,39 µM and > 10 µM and 28 µM,> 100 µM,> 100 µM,24 µM and > 10 µM and 47.1 µM,3.72 µM and 1.44 µM and 5.88 µM,2.41 µM,,4.67 µM and 1.46 µM and 4.62 µM,,4.03 µM and 0.49 µM and 4.68 µM,5.33 µM and 4 µM and 10.7 µM,3.43 µM and 0.681 µM and 4.42 µM,4.48 µM and 2.76 µM and 6.34 µM,4 µM and 2.26 µM and 5.27 µM
